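Cells were grown in 96-well plates and exposed to each compound for 48 hours at five concentrations; endpoints were interpolated linearly between bracketing concentrations, or set to the highest concentration if not reached. Definition used: TGI = concentration required for complete inhibition of growth.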
Columns and labels:
Assay in all cases: NCI-60 cell line screen, 48 h
M14 melanoma = test system: M14 melanoma
NCI-H226 lung = test system: NCI-H226 lung
SK-MEL-2 melanoma = test system: SK-MEL-2 melanoma
NCI/ADR-RES ovarian = test system: NCI/ADR-RES ovarian
SNB-19 CNS = test system: SNB-19 CNS
MALME-3M melanoma = test system: MALME-3M melanoma
SK-MEL-5 melanoma = test system: SK-MEL-5 melanoma
OVCAR-3 ovarian = test system: OVCAR-3 ovarian
UACC-62 melanoma = test system: UACC-62 melanoma
RXF 393 renal = test system: RXF 393 renal

Row | SMILES | TGI (M14 melanoma) [µM] | TGI (NCI-H226 lung) [µM] | TGI (SK-MEL-2 melanoma) [µM] | TGI (NCI/ADR-RES ovarian) [µM] | TGI (SNB-19 CNS) [µM] | TGI (MALME-3M melanoma) [µM] | TGI (SK-MEL-5 melanoma) [µM] | TGI (OVCAR-3 ovarian) [µM] | TGI (UACC-62 melanoma) [µM] | TGI (RXF 393 renal) [µM]
1 | COC(=O)C1=C(C(=O)OC)SC2(S1)C(C(=O)OC)=C(C(=O)OC)Sc1c2ssc1=NC(C)(C)C | 3.15 | 12.8 | 2.82 | 7.73 | 9.77 | 5.09 | 4.92 | 3.5 | 2.97 | 1.96
2 | COc1cc(CS(=O)c2ccc(O)cc2)cc(OC)c1OC (stereo not given) | > 100 | > 100 | > 100 | > 100 | > 100 | > 100 | > 100 | > 100 | > 100 | > 100
3 | CCOC(=O)c1c(-c2cccc3ccccc23)c(C#N)c(=S)n(C2OC(COC(C)=O)C(OC(C)=O)C(OC(C)=O)C2OC(C)=O)c1C (stereo not given) | > 100 | > 100 | > 100 | > 100 | > 100 | > 100 | > 100 | > 100 | > 100 | > 100
4 | COc1ccc(C2=NN=C3C(c4ccccc4)=Nc4ccccc4N3C2)cc1 | 83.8 | > 100 | > 100 | 90.1 | > 100 | 66.3 | > 100 | 6.52 | > 100 | 51.8
5 | CC(C)(C)[Si](C)(C)OCC1OC(n2cnc3c(=O)[nH]c(N)nc32)C(O[Si](C)(C)C(C)(C)C)C1O[Si](C)(C)C(C)(C)C (stereo not given) | 2.89 | 6.79 | 1.01 | > 100 | 6.14 | 4.02 | 1.77 | 3.56 | 4.3 | 4.69
6 | C=C1C(=O)OC2CC3(C)OC3CC/C(C)=C/C(OC(C)=O)C12 (stereo not given) | 9.86 | 26.8 | 31.5 | 30.1 | 31 | 5.9 | 20.4 | 34.7 | 22.9 | 16.4
7 | O=[N+]([O-])C(Cl)=C/C(=C(\Cl)SCc1ccccc1)[N+](=O)[O-] | 53.8 | 75.9 | 76.5 | > 100 | > 100 | 57.8 | 47.3 | 32 | > 100 | 26.3
8 | CN1CCN(C2=CC(=O)c3c(O)ccc(O)c3C2=O)CC1 | 1.94 | 2.96 | 4.08 | > 10 | 3.05 | 0.592 | 0.325 | 0.611 | 3.13 | 2.93

— PubChem BioAssay (NCI)
